Laboratory results: article PMC5427923, “A novel CCR2 antagonist inhibits atherogenesis in apoE deficient mice by achieving high receptor occupancy” (Scientific Reports, 2017)

Tests used:
[1] = tested on: apoE−/− mice; test: Atherosclerotic lesion development in Western-type diet fed apoE−/− mice (carotid collar, aortic root); assay type: in vivo, mouse
Text: Male apoE^−/− mice (10–12 weeks old), obtained from the local animal breeding facility (Gorlaeus Laboratories, Leiden, The Netherlands), were fed a Western type diet, containing 0.25% cholesterol and 15% cocoabutter (SDS, Sussex, UK).
(§1) To determine the effect of the CCR2 antagonist on atherosclerotic lesion development, mice were fed a Western type diet, containing 0.25% cholesterol and 15% cocoabutter (SDS, Sussex, UK) throughout the experiment starting two week before surgery. Carotid artery plaque formation was induced by perivascular collar placement as described previously[46] and from the time of surgery, the mice received daily intraperitoneal injections containing 15a (5 mg/kg/day) or vehicle control (n = 9–10 per group). During the experiment, total body weight and weight gain were measured. Serum total cholesterol levels were determined using an enzymatic colorimetric assay according to manufacturer’s protocol (Roche Diagnostics). Precipath (standardized serum; Boehringer Mannheim, Germany) was used as an internal standard. Plasma cytokine levels were measured by ELISA according to manufacturer’s protocol (BD Biosciences). Blood was collected weekly via tail cut. Total cell count and cellular differentiation patterns in blood were analyzed using an automated XT-2000iV veterinary hematology analyzer (Sysmex Europe GMBH, Norderstedt, Germany). After erythrocyte lysis, blood leukocyte suspensions were stained for surface markers, after which their expression was determined by FACS analysis (FACS Canto, BD Biosciences). After 4 weeks of lesion development, the animals were anaesthetized and blood was collected. After in situ perfusion through the left cardiac chamber, the carotid arteries and hearts were harvested.
Carotid artery cryosections of 5 µm thick were prepared, which were stained with hematoxylin-eosin to determine plaque size and necrotic core size. Morphometric analysis was performed on sections throughout the atherosclerotic lesion (100 µm apart) and at the site of maximal stenosis using Leica Qwin image analysis software. The relative necrotic area was defined as the a-cellular, debris-rich plaque area as percentage of total plaque area, and also quantified using Leica QWin software.
The hearts were dissected just below the atria and sectioned perpendicular to the axis of the aorta, starting within the heart and working in the direction of the aortic arch. Once the aortic root was identified by the appearance of aortic valve leaflets, 10 µm sections were collected. Mean lesion area (in µm^2) of the aortic root was calculated from six Oil-Red-O stained sections in distal direction starting at the point where all three aortic valve leaflets first appeared.
(§2) Macrophage content of the lesions in carotid arteries and aortic roots was stained using a rat monoclonal MOMA2 antibody (1:1000, Serotec, Kidlington, Oxford, UK). Macrophage positive areas were analyzed using computer-assisted colour-gated analysis, and related to the total intimal surface area (Leica QWin). Liver cryosections of 10 µm thick were prepared and subsequently stained with hematoxylin-eosin to analyze liver morphology, which was assessed using a Leica DMRE microscope (Leica Ltd., Cambridge, England).

[2] = tested on: apoE−/− mice; test: Body weight, cholesterol, liver toxicity markers and plasma cytokines in treated apoE−/− mice; assay type: in vivo, mouse
Experimental: as §1, §2
Total RNA was extracted from homogenized liver tissue with the guanidium thiocyanate-phenol-bromochloropropane extraction method. RNA concentration, purity and integrity were examined by nanodrop (Nanodrop® Technologies). RNA was reverse transcribed by M-MuLV reverse transcriptase (RevertAid, MBI Fermentas, Landsmeer, The Netherlands) and used for quantitative analysis of the mouse genes ALT, AST, apoH and GC with an ABI PRISM 7700 Taqman apparatus (Applied Biosystems). For qPCR primer pairs refer to Supplementary Table S1.

[3] = tested on: hCCR2b; settings: cited from earlier work

CC(C)[C@]1(C(=O)N2CCc3ccc(C(F)(F)F)cc3C2)CC[C@@H](N[C@@H]2CCc3cc(Br)ccc32)C1 [15a, ((1S,3R)-3-(((R)-5-bromo-2,3-dihydro-1H-inden-1-yl)amino)-1-isopropylcyclopentyl)(7-(trifluoromethyl)-3,4-dihydroisoquinolin-2(1H)-yl)methanone]
atherosclerotic plaque size in the carotid artery at the site of maximal stenosis ([1]; 5 mg/kg/day i.p., 4 weeks, controls 64.4 ± 11.8): 17.6 ± 4.1 *10^3 µm^2
relative necrotic area ([1]; carotid artery plaques, controls 35.3 ± 8.2%): 7.6 ± 4.5%
plaque volume throughout the carotid arteries ([1]; controls 1.75 ± 0.33): 0.46 ± 0.13 *10^7 µm^3
aortic root plaque volume ([1]; controls 11.8 ± 1.2): 7.4 ± 0.7 *10^7 µm^3
macrophage positive area of the carotid artery plaques (MOMA2) ([1]; controls 22.3 ± 4.1): 6.2 ± 2.5 *10^3 µm^2
relative macrophage content (corrected for lesion size), carotid artery ([1]; controls 46 ± 4%): 25 ± 8%
macrophage positive area, aortic root ([1]; controls 92.0 ± 15.6): 37.2 ± 8.7 *10^3 µm^2
aortic root average plaque size ([1]; controls 215.9 ± 24.6): 157.0 ± 15.7 *10^3 µm^2
reduction in carotid artery lesion size ([1]; mouse, in vivo): more than 70%
change in carotid artery plaque size versus control ([1]; site of maximal stenosis): −73%
body weight ([2]; 5 mg/kg/day i.p., four weeks): not significantly affected
body weight gain ([2]; 5 mg/kg/day i.p., four weeks): not affected
plasma total cholesterol levels ([2]; 5 mg/kg/day i.p., four weeks): not significantly affected
liver mRNA levels of AST ([2]; P = 0.02): somewhat decreased
liver mRNA expression of the toxicity markers ALT, apoH and GC ([2]; mouse, in vivo): did not affect
plasma CCL2 levels ([2]; mouse, in vivo): increased
plasma IL-6 levels ([2]; mouse, in vivo): remained unaffected
liver morphology ([2]; versus controls): similar
RT ([3]; hCCR2, ref Vilums et al. [24]): 714 min
lifetime (RT) on hCCR2 ([3]; hCCR2, ref [24]): more than 10 hours
Ki ([3]; hCCR2, ref [24], read-out: affinity for human CCR2): 2.4 nM
KRI ([3]; hCCR2b, ref Vilums et al. [24]): 1.7
Kd ([3]; hCCR2b, ref Vilums et al. [24]): 0.175 nM
koff ([3]; hCCR2b, ref Vilums et al. [24]): 2.33e-05 s⁻¹
kon ([3]; hCCR2b, ref Vilums et al. [24]): 130000 M⁻¹ s⁻¹
